The test system of one series is PIFs. The following applies: in vitro culture; cited from earlier work.
The conditions of series [1]: cited from earlier work.
Series [2] concerns iPSC generation from fibroblasts. The following applies: without c-Myc and Klf4; cited from earlier work.
A further series deals with bone marrow cells. Nature of the series: MSAIC inhibition assay with GsMTX4 / matrix stiffness culture, PI gene messages by real time PCR. The following applies: 5 μM GsMTX4, 16 hours. In kind it is cell-based, mouse. The protocol:
(§1) C57BL/6 male mice (4-6 weeks old) were purchased from Jackson Laboratory. Bone marrow cells and spleen cells were obtained from 4-6-week-old male C57BL/6 mice. Cells in single cell suspension were red cell-depleted before use. Bone marrow stromal cells were cultured and passaged in T75 culture flask as it was described [Torino et al., Bio-protocol 4: e1031 (2014)]. The embryonic fibroblast was prepared from 13-day fetus of C57BL/6 as described previously [Qiu et al., Bio-protocol 6: e1859 (2016)]. Cells used for the reprogramming were those cultured for 2 to 4 passage periods.
(§2) Cells were cultured in 6 well plates (10^7 cells/well) in triplicate per group. GsMTX4 dissolved in PBS was added to the concentration 5 μM in the experimental group. Sixteen hours later, cells were harvested by scraper for spleen cells and bone marrow cells, pelleted for total RNA-extraction with RNeasy (Qiagen) or Trizol (Invitrogen). For EF cells and BM stromal cells, cell culture medium was drained and directly resuspended to the cell lysis buffer in the culture wells. Extracted RNAs were subjected to cDNA synthesis (Applied Bioscience) and analyzed for the messages specific for mouse PI genes and control genes by real time PCR thereto cycler (Bio-Rad, CFX384). Primers used were: Oct4 (5′: […] (SEQ ID NO:5), 3′: […] (SEQ ID NO:6), Sox2 (5′: […] (SEQ ID NO:7), 3′: […] (SEQ ID NO:8), Nanog (5′: […] ([…]), 3′: […] (SEQ ID NO:10), CFBP/α (5′: […] (SEQ ID NO:11), 3′: […] (SEQ ID NO:12), c-Myc (5′: […] (SEQ ID NO:13), 3′: TTATGCACCAGAGTTTCG (SEQ ID NO:14), RUNX1 (5′: […] (SEQ ID NO:15), 3′: […] (SEQ ID NO:16), PU1 (5′: […] (SEQ ID NO:17), 3′: […] (SEQ ID NO:18), IRF8 (5′: […] (SEQ ID NO:19), 3′: […] (SEQ ID NO:20), FOXP1 (5′: […] (SEQ ID NO:21), 3′: […] (SEQ ID NO:22), KLF4 (5′: […] (SEQ ID NO:23), 3′: […] (SEQ ID NO:24), Actin (5′: […] (SEQ ID NO:25), 3′: […] (SEQ ID NO:26), GAPDH 5′: […] (SEQ ID NO:27), 3′: […] (SEQ ID NO:28). The value of each Cq (Ct) were applied to the formula by which the message level of each specific gene (shown by the index value) was estimated in comparison to that of Actin or GAPDH housekeeping genes.
(§3) Tissue culture plates with defined elasticity surface (0.2, 4, 50 kpa) were purchased from Matrigen. To cast polyacrylamide gel in petri-dishes, 3.5 cm petri-dish was used. Each dish was loaded with 330 μL of polyacrylamide gel cocktail and promptly the size-matched drop lid (polypropylene) was placed on the top (FIG. 30). Three different elasticities of the polyacrylamide gel were prepared in the study. The ratio of [acrylamide (40%): bis-acrylamide (2%): water] was determined according from the published data [Tse and Engler, Curr. Protoc. Cell Biol. Chapt. 10 Unit 10.16 (2010)]. Those were (75:112.5:812.5) for 1.7 kpa, (100:150:750) for 3.2 kpa and (250:30:720) for 7.4 kpa. The slice of the 50 ml conical centrifuge tube caps were used for the drop caps (arrow-pointed in FIG. 30).
In experiments, mouse bone marrow cells were in vitro 37° C. cultured 16 hours in the presence of 5 μM GsMTX4. Cells were then assayed for the PI genes' messages as listed in the left of the FIG. 1. […] The presence of GsMTX4 in the culture was expected to prevent cells from sensing the strong stretch stress by MSAICs. Strikingly, the cells cultured in the presence of GsMTX4 expressed greater than 100 times of Oct4 message compared with the control cells (FIG. 1). […] 10(1): e1004079 (2014); North et al., Stem Cells. 22:158 (2004)].
The fresh bone marrow cells were cultured for 16 hours in 6 well plates with GsMTX4 (5 μM) in DMEM supplemented with 10% FBS. The messages specific for the genes listed in the left were real time PCR-characterized and presented as the relative index in comparison with the value of β-actin message. […]

A further series relates to spleen cells. Nature of the series: MSAIC inhibition assay with GsMTX4, PI gene messages by real time PCR. In kind it is cell-based, mouse. Here is the method: as §1
as §2, with “The value of each Cq (Ct) were applied to the formula by which the message level of each specific gene (shown by the index value) was estimated in comparison to that of Actin or GAPDH housekeeping genes.” left out
Spleen cells were 37° C.-treated with MβCD before the in vitro culture with GsMTX4 as described in FIG. 1. ND: not detected.

The subject of series [3] is EF cells. The description is as above. It counts as cell-based, mouse. The protocol:
as §1
(§4) Cells were cultured in 6 well plates (10^7 cells/well) in triplicate per group. GsMTX4 dissolved in PBS was added to the concentration 5 μM in the experimental group. Sixteen hours later, cells were harvested by scraper for spleen cells and bone marrow cells, pelleted for total RNA-extraction with RNeasy (Qiagen) or Trizol (Invitrogen). For EF cells and BM stromal cells, cell culture medium was drained and directly resuspended to the cell lysis buffer in the culture wells. Extracted RNAs were subjected to cDNA synthesis (Applied Bioscience) and analyzed for the messages specific for mouse PI genes and control genes by real time PCR thereto cycler (Bio-Rad, CFX384). […]

The subject of series [4] is bone marrow stroma cell line. Described as above. In kind it is cell-based, mouse. The following applies: GsMTX4, O/N culture. The protocol: as §1, §4
The test system of series [5] is EF cells. Nature of the series: Reprogramming and differentiation culture of EF cells, microscopy and staining. It counts as cell-based, mouse. Here is the method: as §3
Ninety minutes later drop lids were carefully removed and the gels in the dishes were washed 5 times with 3 ml of sterile water. Each aspiration of the water from the dish was gently performed with 1 ml micro pipettor. During the washing, casted acrylamide gel come off the bottom. […]
Cells were suspended in DMEM supplemented with 5 mM MβCD at the concentration of 2×10^6/ml in 15 ml centrifuge tube. […] Cells on the gel and on the dish-bottom surface were monitored daily and the remarkable phenotype cells were recorded with EVOS cell monitoring system (Thermofisher). […]

In another series the test system is Human PBMC. Nature of the series: Nuclear reprogramming of human peripheral blood mononuclear cells. In kind it is cell-based. The following applies: 5 mM MβCD twice 20 min, then soft polyacrylamide gel culture. From the text:
Human PBMC is an attractive source of somatic cells for reprogramming to stem cells by the available iPSC technology. The sampling of the peripheral blood is a common practice in the medicine and possible to obtain at the individual specific fashion. The purification of the PBMC is also a regular method by Ficol gradient centrifugation. […] 27, 10-(2018), U.S. Pat. No. 9,447,382B2]. To investigate if the methods of the current invention can apply to reprogram human PBMC into the stem cell-like cells, and also differentiate into the de novo phenotypes in vitro, experiments were conducted in which cell were treated with MβCD and then cultured on the soft polyacrylamide gel as described infula.
Human peripheral blood was corrected into the heparinized tube from left forearm vein. The blood mononuclear cells were separated using the Ficoll-Hypaque technique (density, 1.077; Pharmacia Biotech, Uppsala, Sweden). Cells were twice repeatedly 37° C. incubated for 20 min with 5 mM MβCD in DMEM, pelleted by centrifugation at 900 g at room temperature. Washed once with 37° C. warmed DMEM/F12 and resuspended in small volume complete medium (30 μl/2×10^6 cells) [DMEM/F12 (Corning), 20% knockout serum replacement (Gibco), 1% nonessential amino acids (Gibco), 5×10^−5M 2-Mercaptethanol]. Cells in the culture petri-dishes were monitored daily by microscopy and novel phenotype cells were recorded. […]

For series [6], the system named is EF cells. The series is described as follows: RT-PCR assay for the expression of PI genes in the reprogramming cultures of EF cells. It counts as cell-based, mouse. Here is the method: Cells were suspended in DMEM supplemented with 5 mM MβCD at the concentration of 2×10^6/ml in 15 ml centrifuge tube. Cell suspension was incubated for 30 min at 37° C. with every 5 min gentle agitations. Washed once with 37° C. warmed DMEM/F12 and resuspended in small volume complete medium (30 μl/2×10^6 cells) [DMEM/F12 (Corning), 20% knockout serum replacement (Gibco), 1% nonessential amino acids (Gibco), 5×10^−5M 2-Mercaptethanol]. To initiate reprogramming culture on hydrogel, petri dish was added with 2.5 ml complete medium, then 30 μl of cell suspension was loaded on the hydrogel. Multiple dishes were housed in a 15 cm diameter petri dish with a water filled un-lid 6 cm petri dish. Cells on the gel and on the dish-bottom surface were monitored daily and the remarkable phenotype cells were recorded with EVOS cell monitoring system (Thermofisher). Various phenotype cells were characterized by the assays for the markers specific for the cell lineages (e.g., Oil red 0 for the adipocytes and alizarin for calcium deposited cells) as commonly available methods.
Cells derived from the MβCD-treated and hydrogel-exposed culture in petri dish were subjected to the extraction of total RNA by Trizol. cDNAs were prepared as described above and the regular PCR was performed (35 cycle) using PCR master mix (Biotool) and the primers listed above for the real time PCR assays. The PCR products were resolved using 1.5% agarose gel, Ethidium Bromide-stained and the results were acquired by Gel Documentation system (Bio-Rad).
EF cells were MβCD-treated and cultured in the hydrogel-casted petri dishes for 7 days before RNA extraction. The stiffness of the hydrogel was listed on the top of each lane. Total RNAs from spheres and dish-adhered cells were analyzed for the expression of the PI genes by RT-PCR. PCR-amplified fragments were dissolved by 1.5% agarose gel and stained by Ethidium Bromide. […]
EF cells were MβCD-treated and cultured in the petri dishes. […] The message for each PI gene was analyzed as described in FIG. 1 and shown in B.

Some results are limits rather than exact numbers.

For the compound `C[S+](C)[O-]` [DMSO], in the series with PIFs, the “expression of PIFs” value was “repressed”.
Regarding `Cc1c(C(=O)Nc2cccc(C(F)(F)F)c2)cc(-c2ccccc2)n1CCCN1CCOCC1` [HC 067047], in [1], the solubility entry was “only soluble in DMSO or alcohols”.
Turning to `CCCC(CCC)C(=O)O` [Valproic acid], the “increase of reprogramming efficiency over the four transcription factor method” value in series [2] was 100 fold.
Take GsMTX4: in the series with bone marrow cells, the C/EBPα expression entry is on record as “activated prominently”, the “FOXP1 (non-PI gene) expression change” value was “the expression change was small”, the “IRF8 (non-PI gene) expression change” value was “the expression change was small” and the RUNX1 expression result is “activated prominently”. The Sox2 expression result in the series on bone marrow cells is recorded as “activated prominently”. The “Oct4 message compared with the control cells” value in the series on bone marrow cells (37° C., polystyrene surface) was “greater than 100 times”. Besides, the PI genes expression entry in the series on spleen cells (GsMTX4, 16 hours) is listed as “consistently repressed”. In addition, in the series on spleen cells (GsMTX4, day 3), the PI genes expression result is reported as “activation of the PI genes was significantly observed”. The PI genes expression entry with EF cells [3] (GsMTX4, 16 hours) is recorded as “responded like that observed in the study of fresh spleen cells”. Moreover, in the series on EF cells [3] (GsMTX4, day 3), the PI genes expression entry is listed as “found activated”. Further, the solubility entry in series [1] is on record as “water soluble”. Further, in [4], the PI genes expression result is given as “resembled to that of fresh bone marrow cells”.
For methyl-β-cyclodextrin [MβCD], in the series on spleen cells (37° C. MβCD treatment, then GsMTX4 O/N culture), the “PI genes expression in response to GsMTX4 after MβCD treatment” value is “activation of PI genes”. In the series on EF cells [5] (EF cells), the “efficiency of generating stem cell-like / differentiated cells” value is “greater efficiency than that of the hydrogel only”. In the series with EF cells [5] (MβCD, then low pascal hydrogels (1.7, 3.2, 7.4 kpa), O/N culture), the “sphere formation on hydrogel” value is reported as “formation of various size spheres were observed”. Besides, the “appearance of novel-phenotype cells” value with Human PBMC is recorded as “observed novel-phenotype cells”. Further, in the series on EF cells [6] (MβCD-treated EF cells attached to dish bottom), the “time to detection of un-spliced PI gene messages after cholesterol depletion” value is not above 24 h. For the same compound, the “presence of spliced PI gene messages” value in the series with EF cells [6] (MβCD-treated EF cells attached to dish bottom, day 1, 4, 7) was “present only in the cells cultured 7 days”. Further, the “messages for Oct4, Nanog, and Sox2 at predicted sizes in bottom-adhered cells” value in the series on EF cells [6] (MβCD-treated, hydrogel-casted petri dishes, 7 days) is “significant messages”.

The record behind these values is patent US20220389389A1, “METHODS AND A KIT TO REPROGRAM SOMATIC CELLS” (Novoxyne LLC, priority 2019, published 2022).
